# In paper PMC13083723 (Patterns, 2026):
# Counter-ions that a name gives are not always drawn. Like-named read-outs stand apart in the source and are kept apart here.
# Tests used:
# Vero-E6 cells = test: cells; type: cell-based; settings: for activation at 10 µM: Chlorocebus sabaeus, Vero C1008, 24 h
# A549-ACE2 cells = test: cells; type: cell-based; settings: for activation at 10 µM: A549-ACE2, 24 h, read-out: PLD_Effect(%) A549-ACE2
# [1] = read-out: AC50 (value); cited from earlier work
# [2] = read-out: PLD_Effect(%) VERO-E6
molecule,measurement,setting,value
CN1CCN(C2=Cc3ccccc3Oc3ccc(Cl)cc32)CC1 [2-CMDO],activation at 10 µM,Vero-E6 cells; [2],61.3%
same,activation at 10 µM,A549-ACE2 cells,92.5%
CC(=O)c1ccc2c(c1)N(CCCN1CCN(CCO)CC1)c1ccccc1S2 [ACETOPHENAZINE MALEATE],activation at 10 µM,Vero-E6 cells; [2],74.4%
same,activation at 10 µM,A549-ACE2 cells,52.6%
CN(CCc1ccc(Cl)c(Cl)c1)CCN1CCCC1 [BD-1008],activation at 10 µM,Vero-E6 cells; [2],51.3%
same,activation at 10 µM,A549-ACE2 cells,62.5%
CN(C)CCCOc1nn(Cc2ccccc2)c2ccccc12 [BENZYDAMINE HYDROCHLORIDE],activation at 10 µM,Vero-E6 cells; [2],51.2%
same,activation at 10 µM,A549-ACE2 cells,65.2%
CC(COc1ccccc1Cc1ccccc1)N1CCCCC1 (stereo not drawn) [Benproperine Phosphate],activation at 10 µM,Vero-E6 cells; [2],72%
same,activation at 10 µM,A549-ACE2 cells,81.6%
O=C(CN1C2=NCCN2c2ccccc21)c1ccc(-c2ccccc2)cc1 [CCT-031374],activation at 10 µM,Vero-E6 cells; [2],53.9%
same,activation at 10 µM,A549-ACE2 cells,69.9%
"O=C1NC(=O)c2cc(Nc3ccccc3)c(Nc3ccccc3)cc21 [CGP-52411, reference compound]",result_ITMP,Vero-E6 cells,-7.23 percent effect
same,activation at 10 µM,Vero-E6 cells; read-out: PL_Result,-10.9%
same,result_KI,A549-ACE2 cells,-10.8674 percent effect
Cc1[nH]c2ccc(Cl)cc2c1C1=CCNCC1 [EMD-386088],activation at 10 µM,Vero-E6 cells; [2],96.8%
same,activation at 10 µM,A549-ACE2 cells,79.1%
CCn1c2ccccc2c2cc(CNCc3ccccc3OC)ccc21 [HLCL-61 (hydrochloride)],activation at 10 µM,Vero-E6 cells; [2],56.5%
same,activation at 10 µM,A549-ACE2 cells,83%
CCCCN(CCCC)CCC(O)c1cc2c(Cl)cc(Cl)cc2c2cc(C(F)(F)F)ccc12 (stereo not drawn) [Halofantrine?HCl],activation at 10 µM,Vero-E6 cells; [2],68.8%
same,activation at 10 µM,A549-ACE2 cells,77.7%
c1ccc2c(CCNc3ccc(Nc4ccncc4)cc3)c[nH]c2c1 [JNJ 26854165 (Serdemetan)],activation at 10 µM,Vero-E6 cells; [2],74%
same,activation at 10 µM,A549-ACE2 cells,88.4%
C[C@@H](O[C@H]1OCCN(Cc2nn[nH]c2CN(C)C)[C@H]1c1ccc(F)cc1)c1cc(C(F)(F)F)cc(C(F)(F)F)c1 [L-760735],activation at 10 µM,Vero-E6 cells; [2],71.2%
same,activation at 10 µM,A549-ACE2 cells,107%
O=C(Nc1ncc(SCCN2CCCC2)s1)[C@]1(c2ccc(S(=O)(=O)C3CC3)cc2)C[C@H]1C1CCCCC1 [LY2608204],activation at 10 µM,Vero-E6 cells; [2],55.8%
same,activation at 10 µM,A549-ACE2 cells,95.6%
COc1cc(CN(CCN)C(=O)c2cccs2)ccc1OCc1ccccc1 [M8-B],activation at 10 µM,Vero-E6 cells; [2],85.4%
same,activation at 10 µM,A549-ACE2 cells,72.2%
O=C(NCCN1CCC2(CC1)C(=O)NCN2c1cccc(F)c1)c1ccc(F)c(F)c1 [ML-298],activation at 10 µM,Vero-E6 cells; [2],60.1%
same,activation at 10 µM,A549-ACE2 cells,97%
CCn1c2ccccc2c2cc(CNC)ccc21 [PhiKan-083],activation at 10 µM,Vero-E6 cells; [2],73.3%
same,activation at 10 µM,A549-ACE2 cells,83.6%
COc1cccc(CCc2ccccc2OCC[C@@H]2C[C@@H](O)CN2C)c1 [R-96544],activation at 10 µM,Vero-E6 cells; [2],90.4%
same,activation at 10 µM,A549-ACE2 cells,92.6%
CCC(C)CNCC(=O)N1CCc2sccc2C1COc1cccc(C)c1 (stereo not drawn) [RU-SKI-43],activation at 10 µM,Vero-E6 cells; [2],57.8%
same,activation at 10 µM,A549-ACE2 cells,85.5%
O=C(O)[C@H](Cc1c[nH]c2ccccc12)N1C(=O)c2ccccc2C1=O [SPE_K89391146],activation at 10 µM,Vero-E6 cells; read-out: PL_Result,-6.19%
COc1ncc2cc(C(=O)Nc3cc(C(=O)NCc4cccc(Cl)c4)ccc3Cl)c(=O)[nH]c2n1 [SPE_K89517477],activation at 10 µM,Vero-E6 cells; read-out: PL_Result,-0.459%
CCOC(=O)Nc1ccc(NCc2ccc(F)cc2)cc1N [SPE_K89917372],activation at 10 µM,Vero-E6 cells; read-out: PL_Result,-6.22%
COc1cc2ncn(-c3cc(OCc4ccccc4C(F)(F)F)c(C(N)=O)s3)c2cc1OC [SPE_K90382497],activation at 10 µM,Vero-E6 cells; read-out: PL_Result,-7.16%
NCC(=O)Nc1ccc(-n2nc(C(F)(F)F)cc2-c2ccc3c(ccc4ccccc43)c2)cc1 [SPE_K90497590],activation at 10 µM,Vero-E6 cells; read-out: PL_Result,-14.6%
c1ccc(Cn2c(-c3ccc(OC[C@H](C4CCNCC4)n4c(-c5ccccc5)nc5ccccc54)cc3)nc3ccccc32)cc1 [SPE_K90830492],activation at 10 µM,Vero-E6 cells; read-out: PL_Result,1.3%
CC(C)[N+](C)(CCOC(=O)C1c2ccccc2Oc2ccccc21)C(C)C [SPE_K90885812],activation at 10 µM,Vero-E6 cells; read-out: PL_Result,-7.34%
CCOC(=O)[C@@H](N)Cc1ccc(O)c(O)c1 [SPE_K90982969],activation at 10 µM,Vero-E6 cells; read-out: PL_Result,-3.7%
CCCNC(=O)Nc1ccc(Oc2ncnc3cc(OC)c(OC)cc23)cc1Cl [SPE_K90993449],activation at 10 µM,Vero-E6 cells; read-out: PL_Result,-9.86%
Oc1cc(O)cc(/C=C/c2ccc(O)c(O)c2)c1 [SPE_K91509126],activation at 10 µM,Vero-E6 cells; read-out: PL_Result,9.23%
S=c1[nH]cnc2nc[nH]c12 [SPE_K91601245],activation at 10 µM,Vero-E6 cells; read-out: PL_Result,-8.41%
Nc1ccn([C@H]2C[C@H](O)[C@@H](CO)O2)c(=O)n1 [SPE_K91822704],activation at 10 µM,Vero-E6 cells; read-out: PL_Result,0.471%
Nc1nc(OCc2ccccc2)c2nc[nH]c2n1 [SPE_K92041145],activation at 10 µM,Vero-E6 cells; read-out: PL_Result,-3.41%
C=C(c1ccc(C(=O)O)cc1)c1cc2c(cc1C)C(C)(C)CCC2(C)C [SPE_K92441787],activation at 10 µM,Vero-E6 cells; read-out: PL_Result,-8.8%
COc1ccc(CCN(C)CCCN2CCc3cc(OC)c(OC)cc3CC2=O)cc1OC [SPE_K92446736],activation at 10 µM,Vero-E6 cells; read-out: PL_Result,-9.23%
COc1cc2c(cc1NS(=O)(=O)c1ccc(Br)cc1C)n(C)c(=O)n2C [SPE_K92658264],activation at 10 µM,Vero-E6 cells; read-out: PL_Result,-2.45%
CCC[C@H](N[C@@H](C)C(=O)N1[C@H](C(=O)O)C[C@@H]2CCCC[C@@H]21)C(=O)OCC [SPE_K92731339],activation at 10 µM,Vero-E6 cells; read-out: PL_Result,4.37%
COc1ccccc1N1CCN(CCN2C(=O)c3ccccc3C(C)(C)C2=O)CC1 [SPE_K93188295],activation at 10 µM,Vero-E6 cells; read-out: PL_Result,-15%
O=C(NCCN1CCC2(CC1)C(=O)NCN2c1cccc(F)c1)c1ccc2ccccc2c1 [SPE_K93317811],activation at 10 µM,Vero-E6 cells; read-out: PL_Result,113%
O=S(=O)(NCC1CC1)c1ccc(Nc2nccc(N3CCCc4cc(O)ccc43)n2)cc1 [SPE_K94659840],activation at 10 µM,Vero-E6 cells; read-out: PL_Result,3.48%
COc1cc(N2CCC(O)CC2)ccc1Nc1cc(Nc2ccccc2S(=O)(=O)C(C)C)c2cc[nH]c2n1 [SPE_K94853001],activation at 10 µM,Vero-E6 cells; read-out: PL_Result,-4.69%
CCCN(CCC)S(=O)(=O)c1ccc(C(=O)O)cc1 [SPE_K95237249],activation at 10 µM,Vero-E6 cells; read-out: PL_Result,0.643%
O=c1oc(-c2ccc(C(F)(F)F)cc2)nn1Cc1cc(Cl)ccc1O [SPE_K95609758],activation at 10 µM,Vero-E6 cells; read-out: PL_Result,5.3%
COc1cc2c(cc1OC)[C@@H]1CC(=O)[C@@H](CC(C)C)CN1CC2 [SPE_K95739795],activation at 10 µM,Vero-E6 cells; read-out: PL_Result,-5.22%
O=C(Cn1ccnc1[N+](=O)[O-])NCCO [SPE_K96042922],activation at 10 µM,Vero-E6 cells; read-out: PL_Result,-3.79%
Nc1ccn(C[C@@H](CO)OCP(=O)(O)O)c(=O)n1 [SPE_K96153583],activation at 10 µM,Vero-E6 cells; read-out: PL_Result,-12.6%
C[C@H](N)[C@H](O)c1cccc(O)c1 [SPE_K96253961],activation at 10 µM,Vero-E6 cells; read-out: PL_Result,-12.2%
NC[C@H]1O[C@H](O[C@H]2[C@H](O)[C@@H](O[C@H]3O[C@H](CO)[C@@H](O)[C@H](N)[C@H]3O)[C@H](N)C[C@@H]2N)[C@H](N)C[C@@H]1O [SPE_K96342952],activation at 10 µM,Vero-E6 cells; read-out: PL_Result,-3.75%
O=[N+]([O-])c1cn2c(n1)OC[C@@H](OCc1ccc(OC(F)(F)F)cc1)C2 [SPE_K96671969],activation at 10 µM,Vero-E6 cells; read-out: PL_Result,-12.7%
CC(C)COC(=O)c1ccc(N)cc1 [SPE_K96714749],activation at 10 µM,Vero-E6 cells; read-out: PL_Result,1.09%
CC(C)c1ccc(CC(=O)N2CCC[C@@H](c3cccc(OC(C)(C)C(=O)O)c3)C2)cc1 [SPE_K96843359],activation at 10 µM,Vero-E6 cells; read-out: PL_Result,-10.8%
Cc1ccc(=O)n(-c2ccccc2)c1 [SPE_K96862998],activation at 10 µM,Vero-E6 cells; read-out: PL_Result,4.03%
C#C[C@]1(O)CC[C@H]2[C@@H]3CCC4=CC(=O)CCC4=C3C=C[C@@]21CC [SPE_K97472745],activation at 10 µM,Vero-E6 cells; read-out: PL_Result,-10.6%
OC[C@H]1O[C@H](O)C[C@@H](O)[C@@H]1O [SPE_K97808269],activation at 10 µM,Vero-E6 cells; read-out: PL_Result,-3.49%
C[C@@H](c1ccc2nccn2c1)n1nnc2ncc(-c3cnn(C)c3)nc21 [SPE_K98028353],activation at 10 µM,Vero-E6 cells; read-out: PL_Result,-4.44%
C=CCc1ccc(O)c(-c2ccc(O)c(CC=C)c2)c1 [SPE_K98493452],activation at 10 µM,Vero-E6 cells; read-out: PL_Result,-13.9%
C[C@]12CC[C@H]3[C@@H](CCC4=CC(=O)CC[C@@]43C)[C@@H]1CC[C@@H]2C(=O)CO [SPE_K98521173],activation at 10 µM,Vero-E6 cells; read-out: PL_Result,-5.9%
O=C(O)c1ccccc1-c1ccc(C(F)(F)F)cc1 [SPE_K99506538],activation at 10 µM,Vero-E6 cells; read-out: PL_Result,0.609%
CC(=O)[C@@]1(O)CC[C@H]2[C@@H]3C[C@H](C)C4=CC(=O)CC[C@]4(C)[C@H]3CC[C@@]21C [SPE_K99615199],activation at 10 µM,Vero-E6 cells; read-out: PL_Result,-9.68%
CC1(C)CNc2cc(NC(=O)c3cccnc3NCc3ccncc3)ccc21 [SPE_K99616396],activation at 10 µM,Vero-E6 cells; read-out: PL_Result,-4.48%
Cc1cc2c(cc1C(F)(F)F)N(C(=O)Nc1ccc(Oc3cccnc3C)nc1)CC2 [SPE_K99968849],activation at 10 µM,Vero-E6 cells; read-out: PL_Result,3.28%
NC(=O)C1=CN([C@@H]2O[C@H](COP(=O)(O)OP(=O)(O)OC[C@H]3O[C@@H](n4cnc5c(N)ncnc54)[C@H](OP(=O)(O)O)[C@@H]3O)[C@@H](O)[C@H]2O)C=CC1 [SPE_M06409173],activation at 10 µM,Vero-E6 cells; read-out: PL_Result,-2.48%
OCc1cc([C@@H](O)CNCCCCCCOCCOCc2c(Cl)cccc2Cl)ccc1O [SPE_M36487418],activation at 10 µM,Vero-E6 cells; read-out: PL_Result,28.8%
CC(C)(C)NCC(O)c1cc(O)cc(O)c1 (stereo not drawn) [SPE_M79902621],activation at 10 µM,Vero-E6 cells; read-out: PL_Result,-4.19%
CN(C)CCCN1c2ccccc2Sc2ccc(C(F)(F)F)cc21 [TRIFLUPROMAZINE HYDROCHLORIDE],AC50,[1],3 nM
"CC(COc1ccccc1Cc1ccccc1)N1CCCCC1 (stereo not drawn) [benproperine, reference compound]",PLD propensity,Vero-E6 cells,high PLD propensity
Ac-PHSCN-NH2 [SPE_K00521308],PL_Result,Vero-E6 cells,-0.965
